Results published in PMC7504466, “In-Vitro and In-Silico Evaluations of Heterocyclic-Containing Diarylpentanoids as Bcl-2 Inhibitors Against LoVo Colorectal Cancer Cells” (Molecules, 2020).

What was measured:
[1] = system: Bcl-2; assay: Western blot, Bcl-2; format: cell-based, human; settings: 5 µM, LoVo cells, as early as 24 h post-treatment
Procedure: (§1) Lovo cells (1.5 × 10^4 cells/cm^2) were seeded in a T75 flask and incubated at 37 °C and 5% CO2 atmosphere overnight. The seeded cells were then treated with selected compounds at 5 µM of 2e for 24 h, 48 h, and 72 h. After treatment, the cells were harvested and lysed with phenylmethanesulfonyl fluoride (PMSF)-containing cell lysis buffer. The lysates were then centrifuged at 13,300× g for 15 min and the supernatant was collected. Protein concentrations of all samples were determined using a BCA assay kit (Thermo Scientific Inc., Waltham, MA, USA). Equal amounts of protein were electrophoresed in 12% and 20% SDS-polyacrylamide gel (SDS-PAGE), and electro-transferred onto a 0.22-μm polyvinyldene difluoride membrane. Each membrane was blocked with 5% (w/v) skim milk at room temperature for 1 h followed by overnight incubation with specific primary antibodies (1:1000) at 4 °C. Subsequently, the respective membrane was washed thrice with TBST (0.05% (v/v) of tween-20) followed by 1 h incubation with secondary antibody (1:10,000). Upon completion, the membrane was washed thrice with 1X Tris-Buffered Saline, 0.1% Tween® 20 Detergent (TBST) and the immune reactive bands were developed using SuperSignal West Dura Extended Duration Substrate (Thermo Scientific Inc., Waltham, MA, USA). […]

[2] = system: LS411N cells; assay: MTT cytotoxicity assay, LS411N cells; format: cell-based; settings: Homo sapiens, LS-411N, 72 h post-treatment, read-out: IC50 (µM) BRAF LS411N
Procedure: (§2) The in-vitro cytotoxic activity of the synthesized compounds on seven human CRC cell lines including KRAS (T84, SW620, LoVo) and BRAF (HT29, NCI-H508, RKO and LS411N) mutated cells were determined by MTT assay as previously described. The IC50 values obtained are summarized in Table 2 in which 5-FU and normal human dermal fibroblasts (NHDF) were used as controls. Meanwhile, a heatmap (Figure 3) was also generated using GraphPad Prism v7.0 (GraphPad Software, La Jolla, CA, USA) to visualize the cytotoxic trends of synthesized compounds graphically.
(§3) A panel of KRAS (T84, SW620 and LoVo) and BRAF (HT29, NCI-H508, RKO and LS411N) mutated human CRC cell lines were grown in Dulbecco’s modified Eagle’s medium (DMEM) containing 10% fetal bovine serum (FBS) and 1% penicillin/streptomycin at 37 °C under 5% CO2 while NHDF cells were cultured in DMEM with 5% FBS under the same condition. The culture medium was replenished every two days until the cells reached 80–90% confluency for further usage. All cell lines (T84, ATCC®CCL-248™; SW620, ATCC®CCL-227™; LoVo, ATCC®CCL-229™; HT-29, ATCC®HTB-38; NCI-H508, ATCC®CCL-253™; RKO, ATCC®CRL-2577; LS411N, ATCC®CRL-2159; NHDF, ATCC® PCS-201-010™) were purchased from American Type culture Collections (ATCC, Manassas, VA, USA).
(§4) LoVo cells (1.5–5 × 10^3 cells/well) were seeded into a 96 well plate and incubated at 37 °C and 5% CO2 atmosphere for 24 h. On the following day, the cell media were replaced with 100 µL of test compounds at various concentration. The final concentration of DMSO in the well is 0.1%. After 72 h of incubation, culture medium was removed and 100 µL of MTT (thiazoyl blue tertrazolium bromide) solution (0.5 mg/mL in culture media) was added. The resultant plates were then further incubated at 37 °C for 4 h. Upon completion, the MTT solution was removed and the formazan salts formed were dissolved in 100 µL of DMSO. The absorbance was recorded with a microplate reader at 570 nm. The IC50 values of tested compounds were calculated from three independent experiments.

[3] = system: LoVo cells; assay: Morphological inspection; format: cell-based, human; settings: 0.625-5 µM, 24 h post-treatment
Procedure: LoVo cells (5 × 10^4 cells/well) were seeded into a 12 well plate and incubated at 37 °C and 5% CO2 atmosphere for 24 h. Next, the culture media were replaced with 1 mL of test compounds at various concentration and further incubated for 24 h. The final concentration of DMSO in the well is 0.1%. The morphological changes of compound-treated cells were photographed using a fluorescent microscope.

[4] = system: RKO cells; assay: MTT cytotoxicity assay, RKO cells; format: cell-based; settings: Homo sapiens, 72 h post-treatment, read-out: IC50 (µM) BRAF RKO
Procedure: as §2, §3, §4

[5] = system: Bax; assay: Western blot, Bax; format: cell-based, human; settings: 5 µM, LoVo cells, detectable only after 48 h
Procedure: as §1

`O=C1C(=Cc2ccccc2Br)CSCC1=Cc1ccccc1Br` [Compound 2e, 3,5-Bis(2-bromobenzylidene)tetrahydro-4H-thiopyran-4-one] was tested, and the Bcl-2 expression [1] was “significantly inhibited”, the IC50 [2] was 1.3 µM and the “morphology of treated LoVo cells” value [3] was “shrink from an epithelial-like shape to a round shape”. The IC50 [4] was 1.2 µM and the Bax expression [5] was “up-regulation”.
